The values that follow come from US9115093B2, “Substituted bicyclic dihydropyrimidinones and their use as inhibitors of neutrophil elastase activity” (Boehringer Ingelheim International GmbH, priority 2013, dated 2015).

The structures appear in SMILES notation. Converted amounts (≈) assume the structure as drawn.

Data set [1] has as its target T1, neutrophil elastase (Homo sapiens, UniProt P08246).
T1 sequence (P08246 30-247 limits assumed): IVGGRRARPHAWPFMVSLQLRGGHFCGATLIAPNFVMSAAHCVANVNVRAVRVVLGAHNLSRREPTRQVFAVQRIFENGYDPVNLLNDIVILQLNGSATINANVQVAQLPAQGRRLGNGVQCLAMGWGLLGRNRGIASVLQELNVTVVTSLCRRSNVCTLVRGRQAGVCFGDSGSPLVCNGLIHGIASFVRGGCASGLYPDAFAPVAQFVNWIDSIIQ
Nature of the data set: Neutrophil elastase inhibitory activity in human plasma. The data set is classed as biochemical. Further details: The stimulated blood is centrifuged to generate the neutrophil elastase enriched plasma; from tissue; host or cells: plasma from zymosan-stimulated citrated whole blood of healthy human donors. To be noted: neutrophil elastase enriched human plasma (zymosan-stimulated blood), substrate MeOSuc-Ala-Ala-Pro-Val-AMC. The protocol: Assay for the Determination of Neutrophil Elastase Inhibitory Activity in Human Plasma
Citrated blood from human healthy donors is mixed with zymosan suspension and incubated at room temperature. This leads to the stimulation of neutrophils and the release of neutrophil elastase into the plasma. The stimulated blood is centrifuged to generate the neutrophil elastase enriched plasma.
Preparation of Zymosan Working Solution:
• single 45 ml blood sample is taken into a 50 ml tube containing citrate (3.13%, 5 mL) and the tube is gently inverted 4 times. • Immediately after blood sampling, zymosan working solution (5 mL) is added. • After the addition of zymosan working solution, the tubes are capped, mixed gently and incubated at 22° C. for 15 min on a shaker at 20 rpm. • Make 10 ml aliquots after the incubation time. • Centrifuge the 15 ml tubes at 800 g for […] at 4° C. in a Jouan centrifuge. • Harvest the plasma and make 1-5 ml aliquots. • Store the plasma at −80° C.
Various concentrations of the neutrophil elastase inhibitor are incubated with plasma. Subsequently, the enzyme activity is measured using the fluorogenic substrate MeOSuc-Ala-Ala-Pro-Val-AMC (Bachem Cat. No. 1-1270, substrate concentration: 250 μM, pH 7.5, 25 mM TRIS buffer, 250 mM NaCl) in analogous fashion as described for the human neutrophil assay. A dose response curve is generated to calculate the EC50 of the inhibitor. The analysis of the data is performed by the calculation of the percentage of fluorescence in the presence of the test compound compared to the fluorescence of the vehicle control after subtracting the background fluorescence: An inhibitor of the neutrophil elastase enzyme will give values between 100% control (no inhibition) and 0% control (complete inhibition). The human plasma shift of selected compounds can be calculated using the following equation: Human plasma shift=(EC50 in human plasma assay)/(IC50 in human neutrophil elastase assay) The EC50 values of selected compounds in the human plasma assay described above are listed in Table 14.

Data set [2] can be described thus: Aqueous solubility. The format is physicochemical. To be noted: McIlvaine buffer with 2.5% DMSO; McIlvaine buffer pH 6.8, 2.5% DMSO, 24 h shaking. The method, then:
Assay for Determination of Aqueous Solubility
The aqueous solubility of a compound is determined by comparing the amount dissolved in aqueous buffer (containing 2.5% DMSO) to the amount dissolved in an acetonitrile/water (1/1) solution. Starting from a 10 mM DMSO stock solution, aliquots are diluted with acetonitrile/water (1/1) and Mcllvaine buffer pH 6.8, respectively. After 24 h of shaking, the solutions or suspensions are filtered and analyzed by LC-UV. The amount dissolved in buffer is compared to the amount dissolved in the acetonitrile/water (1/1) solution. Solubility is measured from 0.001 to 0.125 mg/ml at a DMSO concentration of 2.5%. If more than 90% of the compound is dissolved in buffer, the value is marked with “>”.

Data set [3] has as its target T1, neutrophil elastase. Nature of the data set: Human Neutrophil Elastase Assay. Further details: purchased Calbiochem 324681. The data set is classed as biochemical. The note with it: substrate MeOSuc-Ala-Ala-Pro-Val-AMC, pH 7.5, room temperature. An outline of the steps:
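Readout: AMC fluorescence (ex 380, em 460 nm) after 60 min room-temperature reaction with 250 nM MeOSuc-AAPV-AMC, following 15 min compound–enzyme preincubation. Buffer: Tris/NaCl pH 7.5, 0.01% BSA.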

A short description of data set [4]: Drug transport across human CACO-2 cells. The data set is classed as in vitro ADME. From the text: Assay for Determination of Drug Transport Across Human CACO-2 Cells
The assay provides information on the potential of a compound to pass the cell membrane, on the extent of oral absorption as well as on whether the compound is actively transported by uptake and/or efflux transporters. For the measurement of permeability across polarized, confluent human cancer colon carcinoma cells 2 (Caco-2) cell monolayers grown on permeable filter supports are used as the in vitro absorption model. Apparent permeability coefficients (PE) of the compounds across the Caco-2 monolayers are measured (pH 7.2, 37° C.) in apical-to-basal (AB) (absorptive) and basal-to-apical (BA) (secretory) transport direction. AB permeability (PEAB) represents drug absorption from the intestine into the blood and BA permeability (PEBA) drug secretion from the blood back into the intestine via both passive permeability as well as active transport mechanisms mediated by efflux and uptake transporters that are expressed on the Caco-2 cells. The compounds are assigned to permeability/absorption classes by comparison of the AB permeabilities with the AB permeabilities of reference compounds with known in vitro permeability and oral absorption in the human. Identical or similar permeabilities in both transport directions indicate passive permeation, vectorial permeability points to additional active transport mechanisms. […] Active transport is concentration-dependently saturable.
Caco-2 cells (1−2*10^5 cells/cm^2 area) are seeded on filter inserts (Costar transwell polycarbonate or PET filters, […] pore size) and cultured (DMEM) for 10 to 25 days. Compounds are dissolved in appropriate solvent (like DMSO, 1-20 mM stock solutions). Stock solutions are diluted with HTP-4 buffer (128.13 mM NaCl, 5.36 mM KCl, 1 mM MgSO4, 1.8 mM CaCl2, 4.17 mM NaHCO3, 1.19 mM Na2HPO4×7H2O, 0.41 mM NaH2PO4×H2O, 15 mM HEPES, 20 mM glucose, pH 7.2) to prepare the transport solutions (typically […] compound, final DMSO <=0.5%). The transport solution (TL) is applied to the apical or basolateral donor side for measuring A-B or B-A permeability (3 filter replicates), respectively. The receiver side contains HTP-4 buffer supplemented with 2% BSA. Samples are collected at the start and end of experiment from the donor and at various time intervals for up to 2 hours also from the receiver side for concentration measurement by LC-MS/MS or scintillation counting. Sampled receiver volumes are is replaced with fresh receiver solution.
The apparent permeability coefficients (PEAB and PEBA) and efflux ratios (PEBA/PEAB) of selected compounds in the Caco-2 drug transport assay described above are listed in Table 17.

In general, EC50 refers to the concentration that produces a half-maximal response. Usually solubility stands for how much of the substance goes into solution per volume. Read a low solubility as little dissolved substance. One may read the IC50 as the concentration at which inhibition is half-maximal. Low readings indicate greater potency in that assay, high ones weaker potency in that assay. By efflux ratio is commonly meant a quotient of directional permeabilities that is used to spot active efflux. Turning to `CN(C)CCNC(=O)N1C(=O)N(c2cccc(C(F)(F)F)c2)C2=C(C(=O)CCC2)C1c1ccc(C#N)cc1` (stereo not drawn) [Example 39.8], the EC50 in data set [1] is 6 nM. Also, the solubility at 24 h in data set [2] came out at 98 µg/mL (≈ 186 µM). For the same compound, half-maximal inhibition in data set [3] (IC50) was put at 1.4 nM. The Papp A→B at 10 nM in data set [4] (Caco-2 monolayers, apical-to-basal, pH 7.2, 37° C., read-out: PEAB) came out at 16.4 ×10⁻⁶ cm/s. For the same compound, the Papp B→A at 10 nM in data set [4] (Caco-2 monolayers, basal-to-apical, pH 7.2, 37° C., read-out: PEBA) was 80.7 ×10⁻⁶ cm/s. In addition, the efflux ratio at 10 nM in data set [4] (pH 7.2, Caco-2, PEBA/PEAB) is 4.9.
